Experimental findings from patent publication US20220305121A1, “N-ARYL SULFONAMIDE DERIVATIVES AS VACCINE ADJUVANT” (The Regents of the University of California, priority 2019, published 2022) are described below.

Entries after “also recorded” stand apart in the source; their conditions may differ.

Common to all, as to assay type: cell-based
One data set deals with NF-κB. Put plainly: Measurement of NF-κB activation using THP1-Blue NF-κB cells (SEAP reporter, LPS as primary stimulus). Particulars: compound 5 μM + LPS, 20 hour incubation; two point normalized: compound 1 + LPS = 200%, LPS = 100%; mean. Put shortly: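 THP1-Blue NF-κB cells (10^5/well, RPMI + 10% FBS) were co-treated with LPS 10 μg/mL and compound 5 μM (final, […]) for 20 h. Supernatant SEAP was read by QuantiBlue colorimetry at 630 nm. Two-point normalization set LPS alone to 100% and compound 1+LPS to 200%.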

The subject of the next data set is NF-κB and ISRE. Put plainly: NF-κB and ISRE reporter assays (primary screens), statements in words for both assays. The following applies: with LPS or IFN-α as primary stimulus; compared to compound 1. As for the experimental part: THP1-Blue™ NF-κB cells were plated in 96-well plates at 10^5 cells/well in 100 μl RPMI supplemented with 10% fetal bovine serum (FBS, Omega Scientific, Inc., Tarzana, Calif.), 100 U/mL penicillin, 100 μg/ml streptomycin (Thermo Fisher Scientific) and Normocin (Invivogen). LPS was prepared in assay medium at a concentration of 20 μg/mL. Tested compounds were dissolved in DMSO at 1 mM as a stock solution and were further diluted in the LPS solution to a final concentration of 10 μM. 100 μL of this solution was then transferred to the plated cells to obtain a final concentration of LPS at 10 μg/mL and compound at 5 μM ([…]). The culture supernatants were harvested after a 20 hour incubation period, SEAP activity in the culture supernatants was determined by a colorimetric assay using QuantiBlue (Invivogen). Plate absorbance was read at 630 nm using a Tecan Infinite M200 plate reader (Männedorf, Switzerland). The SEAP concentration was directly proportional to NF-κB activity, which was 2-point normalized to yield activity of compound 1+LPS as 200% and activity for LPS as 100%.
ISRE-bla THP-1 cells were plated in 96-well plates at 5×10^4 cells/well in 50 μl RPMI supplemented with 10% dialyzed FBS (Atlanta Biologicals, Inc., GA), 0.1 mM nonessential amino acids, 1 mM sodium pyruvate, 100 U/mL penicillin and 100 μg/ml streptomycin. Type I IFN-α (R&D Systems, #11200-2) solution was prepared in assay medium at a concentration of 200 U/mL Tested compounds were dissolved in DMSO at 1 mM and were further diluted in the IFN-α solution to a final concentration of 10 μM. 50 μL of this solution was then transferred to the plated cells to obtain a final concentration of IFN-α at 100 U/mL and compound at 5 μM ([…]), The cells were incubated for 16 hours, after which 20 μL of 6×LiveBLAzer™ FRET B/G Substrate (CCF4-AM) mixture (prepared according to the manufacturer's instructions) was added to each well, Plates were incubated at room temperature in the dark for 3 hours. Fluorescence was measured on a Tecan Infinite M200 plate reader at an excitation wavelength of 405 nm, and emission wavelengths of 465 nm and 535 nm. Background values (cell free wells at the same fluorescence wavelength) were subtracted from the raw fluorescence intensity values and the emission ratios were calculated as the ratio of background subtracted fluorescence intensities at 465 nm to background subtracted fluorescence intensities at 535 nm. The ISRE activity values for these compounds were 2-point normalized to yield activity of compound 1+IFN-α as 200% and activity for IFN-α as 100%.
Measurement of NF-κB Activation Using THP1-Blue NF-κB Cells. THP1-Blue NF-κB cells were plated in 96-well plates at 10^5 cells/well in 100 μL of RPMI supplemented with 10% fetal bovine serum (FBS, Omega Scientific, Inc., Tarzana, Calif.), 100 U/mL penicillin, 100 μg/mL streptomycin (Thermo Fisher Scientific), and Normocin (Invivogen). LPS was prepared in assay medium at a concentration of 20 μg/mL. Tested compounds were dissolved in DMSO at 1 mM as a stock solution and were further diluted in the LPS solution to a final concentration of 10 μM. 100 μL of this solution was then transferred to the plated cells to obtain a final concentration of LPS at 10 μg/mL and compound at 5 μM ([…]). The culture supernatants were harvested after a 20 hours incubation period. SEAP activity in the culture supernatants was determined by a colorimetric assay using QuantiBlue (Invivogen). Plate absorbance was read at 630 nm using a Tecan Infinite M200 plate reader (Mannedorf, Switzerland). The SEAP concentration was directly proportional to NF-κB activity, which was two-point normalized to yield activity of compound 1+LPS as 200% and activity for LPS as 100%.
Measurement of ISRE Activity in ISRE-bla THP-1 Cells. […]

For a further data set, the system named is THP-1 cells. Briefly: Cell viability assay (MTT). The following applies: compound 5 μM, 18 hours incubation; normalized to DMSO as 100%; mean. An outline of the steps:
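Cells at 10^5/well in RPMI with 10% FBS were exposed to compound at 5 μM final (0.05% DMSO) for 18 h. MTT (0.5 mg/mL) then added for 4-6 h, cells lysed overnight in SDS/HCl, absorbance read at 570 nm against 650 nm reference.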

Another data set has as its system ISRE. Put plainly: Measurement of ISRE activity in ISRE-bla THP-1 cells (FRET, IFN-α as primary stimulus). The following applies: compound 5 μM + IFN-α 100 U/mL, 16 hours, two point normalized: compound 1 + IFN-α = 200%, IFN-α = 100%, mean; for activity at 5 µM: Homo sapiens, THP-1, read-out: ISRE % Activation. Put shortly: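 Cells at 5×10^4/well in RPMI with 10% dialyzed FBS, treated with compound at 5 μM (0.05% DMSO) plus IFN-α at 100 U/mL (final) for 16 h. CCF4-AM substrate added for 3 h at room temperature. Background-subtracted 465/535 nm emission ratio, 2-point normalized: IFN-α alone 100%, compound 1+IFN-α 200%.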

For `C#CCOCCOCCOCCN(c1cc(OC)c(Cl)cc1OC)S(=O)(=O)c1ccc(OCC)cc1` [Compound 45, N-(4-chloro-2,5-dimethoxyphenyl)-4-ethoxy-N-(2-(2-(2-(prop-2-yn-1-yloxy)ethoxy)ethoxy)ethyl)benzenesulfonamide], the activity at 5 µM came out at 107% with NF-κB and 130% in the data set on ISRE. In addition, the “activity in NF-κB and ISRE assays (in words)” value (shortened to “activity … (in words)”) with NF-κB and ISRE is “too long to retain activity”. For the same molecule, in the data set on THP-1 cells, the “MTT % Viability” value is 73.7%.

Consider `CCCOc1ccc(S(=O)(=O)Nc2cc(OC)c(Cl)cc2OC)cc1` [Compound 13, N-(4-chloro-2,5-dimethoxyphenyl)-4-propoxybenzenesulfonamide], for which the figures for the activity at 5 µM in the data set with NF-κB and in the data set on ISRE were 149% and 125%, respectively. Besides, the “activity … (in words)” value in the data set with NF-κB and ISRE is on record as “weakly active; also recorded: retained activity”. Also, the “MTT % Viability” value in the data set with THP-1 cells was 71.3%.

On to `COc1cc(NS(=O)(=O)c2ccc(Oc3ccccc3)cc2)c(OC)cc1Cl` [Compound 22, N-(4-chloro-2,5-dimethoxyphenyl)-4-phenoxybenzenesulfonamide], for which the activity at 5 µM in the data set with NF-κB was determined as 98%; with ISRE it was 95%. For the same molecule, the “activity … (in words)” value in the data set on NF-κB and ISRE was “inactive”. In addition, the “MTT % Viability” value in the data set on THP-1 cells was determined as 91.3%.

Take `CCOc1ccc(S(=O)(=O)N(CC(C)C)c2cc(OC)c(Cl)cc2OC)cc1` [Compound 41, N-(4-chloro-2,5-dimethoxyphenyl)-4-ethoxy-N-isobutylbenzenesulfonamide]: the figures for the activity at 5 µM with NF-κB and with ISRE were 175% and 193%, respectively. Also, the “activity … (in words)” value in the data set on NF-κB and ISRE is “regained the activity in both the NF-κB and ISRE assays”. Moreover, the “MTT % Viability” value in the data set with THP-1 cells worked out at 76.7%.

`CCOC(=O)CN(c1cc(OC)c(Cl)cc1OC)S(=O)(=O)c1ccc(OCC)cc1` [Compound 49, Ethyl N-(4-chloro-2,5-dimethoxyphenyl)-N-((4-ethoxyphenyl)sulfonyl)glycinate]: the activity at 5 µM in the data set on NF-κB was 202%; with ISRE, 184%. In addition, the “activity … (in words)” value in the data set with NF-κB and ISRE was “retained dual NF-κB and ISRE activities”. Also, in the data set on THP-1 cells, the “MTT % Viability” value is on record as 81.4%.

Consider `C#CCOc1ccc(S(=O)(=O)Nc2cc(OC)c(Cl)cc2OC)cc1` [Compound 15, N-(4-chloro-2,5-dimethoxyphenyl)-4-(prop-2-yn-1-yloxy) benzenesulfonamide], for which, in the data set on NF-κB, the “NF-κB % Activation” value worked out at 97%. For the same molecule, the “activity … (in words)” value in the data set with NF-κB and ISRE is “inactive”. Moreover, in the data set on THP-1 cells, the “MTT % Viability” value turned out to be 80.9%. Further, the “ISRE % Activation” value in the data set on ISRE is given as 99%.

For `COc1cccc(S(=O)(=O)Nc2cc(OC)c(Cl)cc2OC)c1` [Compound 23, N-(4-chloro-2,5-dimethoxyphenyl)-3-methoxybenzenesulfonamide], the activity at 5 µM in the data set on NF-κB was 116%; in the data set on ISRE, 104%. The “activity … (in words)” value in the data set on NF-κB and ISRE was “none of these molecules were active”. For the same molecule, the “MTT % Viability” value with THP-1 cells is recorded as 79.6%.

Consider `CCOc1ccc(S(=O)(=O)Nc2ccc(Cl)c(OC)c2)cc1` [Compound 4, N-(4-chloro-3-methoxyphenyl)-4-ethoxybenzenesulfonamide], for which the activity at 5 µM in the data set with NF-κB came to 126%; with ISRE, 99%. Besides, the “activity … (in words)” value in the data set on NF-κB and ISRE was “complete loss of activity; also recorded: significant loss of activity”. Besides, the “MTT % Viability” value with THP-1 cells came out at 83.7%.

As for `CCOc1ccc(S(=O)(=O)Nc2cc(OC)c(Cl)cc2OC)cc1Br` [Compound 25, 3-Bromo-N-(4-chloro-2,5-dimethoxyphenyl)-4-ethoxybenzenesulfonamide], the activity at 5 µM is 87% with NF-κB and 101% in the data set on ISRE. In the data set on NF-κB and ISRE, the “activity … (in words)” value is “inactive”. Moreover, in the data set on THP-1 cells, the “MTT % Viability” value worked out at 85.0%.
